Drawing on patent US11208412B2 (DAEGU-GYEONGBUK MEDICAL INNOVATION FOUNDATION, priority 2017, dated 2021), this text covers remaining binding for 3 compounds.

What all share (assay): Kinase selectivity, DiscoverX scanMAX Kinase assay panel (% control)
Common to all, as to format: binding

For experiment [1], the target named is T1, kinases of the scanMAX Kinase assay panel (Homo sapiens, UniProt P19784).
T1 construct: purchased DiscoverX Co. (contract measurement) scanMAX Kinase assay panel
Particulars: CSNK2A2; 1 uM. An outline of the steps:
(§1)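 A 1 uM DMSO solution of compound was applied across the panel kinases, and results were expressed as % control relative to DMSO (100%) and a positive control (0%).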

For experiment [2], the target named is T2, kinases of the scanMAX Kinase assay panel (Homo sapiens, UniProt P21127).
T2 construct: purchased DiscoverX Co. (contract measurement) scanMAX Kinase assay panel
Conditions: CDC2L1; 1 uM. An outline of the steps:
as §1

Experiment [3] has as its target T3, kinases of the scanMAX Kinase assay panel (Homo sapiens, UniProt P48736).
T3 construct: purchased DiscoverX Co. (contract measurement) scanMAX Kinase assay panel
Conditions: PIK3CG; 1 uM. An outline of the steps:
as §1

Experiment [4] concerns the target T4, kinases of the scanMAX Kinase assay panel (Homo sapiens, UniProt Q12852).
T4 construct: purchased DiscoverX Co. (contract measurement) scanMAX Kinase assay panel
T4 sequence (Q12852 1-859): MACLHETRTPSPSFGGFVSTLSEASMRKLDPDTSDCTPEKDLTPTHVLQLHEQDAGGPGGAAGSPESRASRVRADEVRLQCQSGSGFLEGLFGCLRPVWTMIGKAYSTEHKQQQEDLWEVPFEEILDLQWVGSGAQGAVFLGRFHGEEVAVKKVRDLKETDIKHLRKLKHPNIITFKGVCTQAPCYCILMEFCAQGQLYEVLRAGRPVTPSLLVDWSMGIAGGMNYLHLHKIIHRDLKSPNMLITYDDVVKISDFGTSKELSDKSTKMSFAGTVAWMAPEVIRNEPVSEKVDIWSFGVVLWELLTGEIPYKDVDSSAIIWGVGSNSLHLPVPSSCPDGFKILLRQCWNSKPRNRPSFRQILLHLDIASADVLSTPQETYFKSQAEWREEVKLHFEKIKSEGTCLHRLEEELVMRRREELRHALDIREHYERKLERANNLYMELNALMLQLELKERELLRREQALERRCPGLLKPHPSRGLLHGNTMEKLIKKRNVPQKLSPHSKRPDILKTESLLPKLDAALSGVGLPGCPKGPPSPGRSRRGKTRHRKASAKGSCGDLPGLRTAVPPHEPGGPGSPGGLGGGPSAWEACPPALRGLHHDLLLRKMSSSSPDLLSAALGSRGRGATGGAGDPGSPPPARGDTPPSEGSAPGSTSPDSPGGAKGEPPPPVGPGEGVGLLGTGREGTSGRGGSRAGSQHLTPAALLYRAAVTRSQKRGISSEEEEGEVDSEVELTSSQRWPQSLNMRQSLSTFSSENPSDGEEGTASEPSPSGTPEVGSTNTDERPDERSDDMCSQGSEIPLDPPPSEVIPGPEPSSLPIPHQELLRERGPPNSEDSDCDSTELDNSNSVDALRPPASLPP
Conditions: DLK; 1 uM. Put shortly: as §1

Experiment [5] has as its target T5, kinases of the scanMAX Kinase assay panel (Homo sapiens, UniProt Q6P3R8).
T5 construct: purchased DiscoverX Co. (contract measurement) scanMAX Kinase assay panel
T5 sequence (Q6P3R8 1-708): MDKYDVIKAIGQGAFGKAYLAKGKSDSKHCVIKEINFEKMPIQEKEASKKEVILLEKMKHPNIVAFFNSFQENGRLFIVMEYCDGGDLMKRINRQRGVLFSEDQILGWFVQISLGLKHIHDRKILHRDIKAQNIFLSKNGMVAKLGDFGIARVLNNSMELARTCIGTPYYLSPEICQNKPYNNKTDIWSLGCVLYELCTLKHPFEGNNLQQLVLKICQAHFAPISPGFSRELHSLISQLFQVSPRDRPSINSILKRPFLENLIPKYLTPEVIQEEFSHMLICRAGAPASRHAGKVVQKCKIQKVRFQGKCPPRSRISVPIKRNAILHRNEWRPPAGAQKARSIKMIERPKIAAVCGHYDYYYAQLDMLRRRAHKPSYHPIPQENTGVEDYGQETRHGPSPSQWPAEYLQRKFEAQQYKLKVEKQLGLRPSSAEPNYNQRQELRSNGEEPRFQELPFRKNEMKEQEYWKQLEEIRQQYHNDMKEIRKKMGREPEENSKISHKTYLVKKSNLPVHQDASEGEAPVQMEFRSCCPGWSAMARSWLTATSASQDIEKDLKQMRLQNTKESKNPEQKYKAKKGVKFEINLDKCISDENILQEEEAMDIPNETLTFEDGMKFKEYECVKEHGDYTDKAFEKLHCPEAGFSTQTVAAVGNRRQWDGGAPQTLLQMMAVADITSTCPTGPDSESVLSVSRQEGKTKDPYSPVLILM
Conditions: NEK5; 1 uM. Put shortly:
as §1

Experiment [6] deals with T6, kinases of the scanMAX Kinase assay panel (Homo sapiens, UniProt Q86Y07).
T6 construct: purchased DiscoverX Co. (contract measurement) scanMAX Kinase assay panel
Conditions: kinase VRK2; 1 uM in DMSO. Put shortly: as §1

In experiment [7] the target is T7, kinases of the scanMAX Kinase assay panel (Homo sapiens, UniProt Q9HC98).
T7 construct: purchased DiscoverX Co. (contract measurement) scanMAX Kinase assay panel
Conditions: NEK6; 1 uM. Put shortly: as §1

Experiment [8] addresses T8, kinases of the scanMAX Kinase assay panel (Homo sapiens, UniProt Q9NWZ3).
T8 construct: purchased DiscoverX Co. (contract measurement) scanMAX Kinase assay panel
T8 sequence (Q9NWZ3 1-460): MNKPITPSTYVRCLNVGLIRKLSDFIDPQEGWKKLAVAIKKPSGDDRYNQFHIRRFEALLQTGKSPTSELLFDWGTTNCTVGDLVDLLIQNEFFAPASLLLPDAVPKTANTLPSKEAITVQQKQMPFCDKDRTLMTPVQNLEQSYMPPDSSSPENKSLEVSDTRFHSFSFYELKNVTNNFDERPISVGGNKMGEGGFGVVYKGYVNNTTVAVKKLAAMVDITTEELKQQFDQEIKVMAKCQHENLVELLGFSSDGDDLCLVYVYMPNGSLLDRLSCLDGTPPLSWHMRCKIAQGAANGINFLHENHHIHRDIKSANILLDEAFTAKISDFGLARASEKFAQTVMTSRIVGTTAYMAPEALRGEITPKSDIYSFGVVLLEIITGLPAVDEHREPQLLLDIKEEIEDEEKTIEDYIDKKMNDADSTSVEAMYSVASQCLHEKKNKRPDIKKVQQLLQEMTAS
Conditions: IRAK4; 1 uM. Put shortly:
as §1

T1 sequence (P19784 whole entry): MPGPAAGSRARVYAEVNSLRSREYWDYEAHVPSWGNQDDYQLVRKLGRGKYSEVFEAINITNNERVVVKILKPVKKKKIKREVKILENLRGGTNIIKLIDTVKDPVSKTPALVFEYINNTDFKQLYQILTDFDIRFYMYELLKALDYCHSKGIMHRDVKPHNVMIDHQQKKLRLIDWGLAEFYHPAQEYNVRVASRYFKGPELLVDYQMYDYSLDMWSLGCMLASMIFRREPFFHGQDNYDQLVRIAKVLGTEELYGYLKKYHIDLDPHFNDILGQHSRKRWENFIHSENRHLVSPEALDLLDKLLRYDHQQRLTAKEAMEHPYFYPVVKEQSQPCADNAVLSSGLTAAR
T6 sequence (Q86Y07 whole entry): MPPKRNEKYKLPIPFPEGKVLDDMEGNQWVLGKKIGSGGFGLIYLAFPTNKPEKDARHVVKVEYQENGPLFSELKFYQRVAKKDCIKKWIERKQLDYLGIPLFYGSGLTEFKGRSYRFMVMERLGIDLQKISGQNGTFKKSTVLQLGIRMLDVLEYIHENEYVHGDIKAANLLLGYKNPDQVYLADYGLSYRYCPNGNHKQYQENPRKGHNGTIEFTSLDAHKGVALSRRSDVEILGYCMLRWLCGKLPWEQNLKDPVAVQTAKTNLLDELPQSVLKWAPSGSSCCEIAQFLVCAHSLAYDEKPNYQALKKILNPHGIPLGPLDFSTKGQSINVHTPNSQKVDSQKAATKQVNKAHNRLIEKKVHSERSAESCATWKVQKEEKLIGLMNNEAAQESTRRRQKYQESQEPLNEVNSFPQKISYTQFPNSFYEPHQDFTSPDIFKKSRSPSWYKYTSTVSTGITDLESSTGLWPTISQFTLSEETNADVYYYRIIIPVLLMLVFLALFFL
T7 sequence (Q9HC98 whole entry): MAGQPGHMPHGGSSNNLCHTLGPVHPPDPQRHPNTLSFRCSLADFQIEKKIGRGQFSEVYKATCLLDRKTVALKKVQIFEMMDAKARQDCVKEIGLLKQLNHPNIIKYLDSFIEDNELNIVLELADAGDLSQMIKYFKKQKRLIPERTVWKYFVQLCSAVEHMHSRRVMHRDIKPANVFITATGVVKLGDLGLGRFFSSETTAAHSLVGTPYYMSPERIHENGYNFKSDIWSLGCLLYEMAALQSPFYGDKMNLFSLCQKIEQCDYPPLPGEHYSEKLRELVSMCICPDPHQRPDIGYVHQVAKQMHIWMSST
T2 sequence (P21127 whole entry): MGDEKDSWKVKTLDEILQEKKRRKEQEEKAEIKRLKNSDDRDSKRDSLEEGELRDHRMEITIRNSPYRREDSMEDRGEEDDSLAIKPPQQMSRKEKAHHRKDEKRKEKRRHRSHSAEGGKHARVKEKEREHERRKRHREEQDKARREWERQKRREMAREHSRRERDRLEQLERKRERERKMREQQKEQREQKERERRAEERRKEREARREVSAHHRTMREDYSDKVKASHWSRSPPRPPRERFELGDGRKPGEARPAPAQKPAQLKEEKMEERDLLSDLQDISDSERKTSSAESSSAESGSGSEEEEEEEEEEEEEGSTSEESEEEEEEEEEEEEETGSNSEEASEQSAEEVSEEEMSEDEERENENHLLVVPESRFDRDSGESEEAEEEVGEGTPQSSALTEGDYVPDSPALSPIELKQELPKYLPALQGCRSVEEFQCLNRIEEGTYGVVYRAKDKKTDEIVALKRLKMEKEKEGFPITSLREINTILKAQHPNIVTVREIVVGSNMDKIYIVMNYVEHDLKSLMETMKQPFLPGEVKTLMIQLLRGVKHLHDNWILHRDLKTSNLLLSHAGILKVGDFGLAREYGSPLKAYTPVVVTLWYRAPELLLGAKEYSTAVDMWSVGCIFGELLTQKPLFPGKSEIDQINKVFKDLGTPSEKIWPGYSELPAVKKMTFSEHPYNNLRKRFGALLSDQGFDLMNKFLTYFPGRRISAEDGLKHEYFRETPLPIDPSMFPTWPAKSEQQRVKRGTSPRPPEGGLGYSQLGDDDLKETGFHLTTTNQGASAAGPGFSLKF
T3 sequence (P48736 whole entry): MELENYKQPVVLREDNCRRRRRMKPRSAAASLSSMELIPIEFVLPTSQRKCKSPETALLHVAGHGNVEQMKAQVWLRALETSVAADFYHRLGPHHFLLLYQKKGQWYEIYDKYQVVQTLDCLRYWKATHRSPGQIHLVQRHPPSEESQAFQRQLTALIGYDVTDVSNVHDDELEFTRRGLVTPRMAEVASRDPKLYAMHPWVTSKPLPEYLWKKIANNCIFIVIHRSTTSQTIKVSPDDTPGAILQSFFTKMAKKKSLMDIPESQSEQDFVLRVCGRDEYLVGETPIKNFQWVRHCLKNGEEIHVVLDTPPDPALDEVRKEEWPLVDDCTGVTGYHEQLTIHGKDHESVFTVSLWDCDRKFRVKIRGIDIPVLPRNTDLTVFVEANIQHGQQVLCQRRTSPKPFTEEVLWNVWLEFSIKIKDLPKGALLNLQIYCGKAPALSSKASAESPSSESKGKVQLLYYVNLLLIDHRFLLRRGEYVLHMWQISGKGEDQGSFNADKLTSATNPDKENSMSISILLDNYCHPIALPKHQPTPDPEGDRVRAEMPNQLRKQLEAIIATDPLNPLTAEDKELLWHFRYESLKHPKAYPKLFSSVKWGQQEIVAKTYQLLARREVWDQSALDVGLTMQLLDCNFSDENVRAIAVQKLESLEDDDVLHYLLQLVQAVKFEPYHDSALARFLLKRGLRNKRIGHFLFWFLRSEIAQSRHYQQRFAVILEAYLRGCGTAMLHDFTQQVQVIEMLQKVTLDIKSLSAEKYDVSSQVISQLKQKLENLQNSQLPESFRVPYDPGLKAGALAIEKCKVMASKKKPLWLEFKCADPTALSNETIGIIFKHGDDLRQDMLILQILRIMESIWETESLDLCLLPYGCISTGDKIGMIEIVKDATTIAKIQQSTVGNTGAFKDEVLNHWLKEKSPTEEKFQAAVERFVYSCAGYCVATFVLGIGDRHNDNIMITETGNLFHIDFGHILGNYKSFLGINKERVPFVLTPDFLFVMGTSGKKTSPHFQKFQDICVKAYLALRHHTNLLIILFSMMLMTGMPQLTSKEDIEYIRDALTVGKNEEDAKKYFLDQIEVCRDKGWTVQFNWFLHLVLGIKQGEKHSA

Turning to `CNc1nc(Nc2ccc(C(=O)N3CCOCC3)cc2OC)nc2[nH]cc(C#N)c12` [Example 1, 2-((2-methoxy-4-(morpholine-4-carbonyl)phenyl)amino)-4-(methylamino)-7H-pyrrolo[2,3-d]pyrimidine-5-carbonitrile], the remaining binding at 1 µM in experiment [1] is 76%; in experiment [2], 100%; in experiment [3], 76%; in experiment [4] it was 74%; in experiment [5], 98%; in experiment [6], 71%. Moreover, the figures for the remaining binding at 1 µM in experiment [7] and in experiment [8] were 95% and 92%, respectively.

Regarding `CC1(Nc2nc(Nc3cnn([C@H]4CCN(C5COC5)C[C@@H]4F)c3Cl)nc3[nH]cc(C#N)c23)CC1` [Example 52, 2-((5-chloro-1-((3S,4S)-3-fluoro-1-(oxetane-3-yl)piperidine-4-yl)-1H-pyrazole-4-yl)amino)((1-methylcyclopropyl)amino)-7H-pyrrolo[2,3-d]pyrimidine-5-carbonitrile], the remaining binding at 1 µM in experiment [1] worked out at 11%; in experiment [2], 84%; in experiment [3], 8.5%; in experiment [4] it was 21%; in experiment [5] it was 99%; in experiment [6] it was 100%. In addition, the remaining binding at 1 µM in experiment [7] turned out to be 93%; in experiment [8], 0.2%.

As to `CCNc1nc(Nc2ccc(C(=O)N3CCC(N4CCOCC4)CC3)cc2OC)nc2[nH]cc(C(F)(F)F)c12` [Example 104, (4-((4-(ethylamino)-5-(trifluoromethyl)-7H-pyrrolo[2,3-d]pyrimidine-2-yl)amino)-3-methoxyphenyl)(4-morpholinopiperidine-1-yl)methanone], the remaining binding at 1 µM in experiment [1] came out at 95%; in experiment [2] it was 99%; in experiment [3], 87%; in experiment [4], 100%; in experiment [5] it was 95%; in experiment [6], 100%. In addition, the remaining binding at 1 µM in experiment [7] and in experiment [8] was 100% in each case.
